Experimental data: patent US11590116B2 (THERAVANCE BIOPHARMA R&D IP, LLC, priority 2019, dated 2023)

What was measured:
[1] = tested on: TGF-β-stimulated SMAD3 phosphorylation in BEAS-2B cells; experiment: Cellular ALK5 potency assay, inhibition of TGF-β stimulated pSMAD3 formation in BEAS-2B cells; type: cell-based; conditions: Homo sapiens; inhibition of TGF-β stimulated pSMAD3 formation, BEAS-2B cells; read-out: BEAS2B pIC50 (converted)
In short: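 AlphaLISA pSMAD3 read-out, beads incubated overnight. Human BEAS-2B cells: 1 h compound preincubation (37 °C, 5% CO2), then 30 min TGF-β at 10 ng/mL final, immediate lysis. Values are pIC50 relative to stimulated, compound-free baseline.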

[2] = target: T1, recombinant human ALK5 (TGF-βR1) protein (Homo sapiens, UniProt P36897); experiment: Biochemical ALK5 (TGF-βR1) assay to measure pKi (LANCE Ultra ULight kinase assay); conditions: apparent pKi from pIC50 by Cheng-Prusoff, read-out: ALK5 pKi (converted)
T1 construct: purchased Life Technologies PR9075A
T1 sequence (P36897 34-503): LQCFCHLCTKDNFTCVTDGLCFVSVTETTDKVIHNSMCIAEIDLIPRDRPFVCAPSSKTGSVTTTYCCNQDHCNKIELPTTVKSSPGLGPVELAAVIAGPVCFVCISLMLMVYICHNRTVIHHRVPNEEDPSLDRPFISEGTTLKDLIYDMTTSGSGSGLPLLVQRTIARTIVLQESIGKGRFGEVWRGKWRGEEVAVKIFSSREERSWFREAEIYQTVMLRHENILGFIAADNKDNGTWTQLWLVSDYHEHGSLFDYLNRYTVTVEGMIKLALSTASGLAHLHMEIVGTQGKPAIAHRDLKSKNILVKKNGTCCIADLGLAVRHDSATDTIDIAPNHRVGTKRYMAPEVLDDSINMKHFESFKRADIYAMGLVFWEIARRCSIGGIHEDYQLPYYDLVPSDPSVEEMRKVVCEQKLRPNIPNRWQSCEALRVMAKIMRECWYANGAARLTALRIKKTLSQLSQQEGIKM
In short: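 Compounds (10 μM to 25 pM) were preincubated 60 min at room temperature with enzyme, then reactions were started with ATP (125 μM stock, 5× final) and run 60 min at 37 °C. EDTA-containing Eu-anti-phospho-Topo IIα (Thr1342) antibody stopped the reaction; TR-FRET read at 665 nm. pIC50 from 4-parameter fit, converted to pKi via Cheng-Prusoff.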

Ki [2]	Structure (SMILES)	IC50 [1]
0.0398 to 0.316 nM	Cc1cccc(-c2[nH]cnc2-c2ccc3ncc(C(=O)O[C@H]4CC[C@](C)(N)CC4)cc3c2)n1 [Compound 771, (4-amino-4-methyl-cyclohexyl) 6-[5-(6-methyl-2-pyridyl)-1H-imidazol-4-yl]quinoline-3-carboxylate]	25.1 to 158 nM
0.398 to 3.16 nM	Cc1cccc(-c2n[nH]cc2-c2ccc3ncc(-c4c(C)nn5c4NCCC5)cc3n2)n1 [Compound 212, 2-[3-(6-methyl-2-pyridyl)-1H-pyrazol-4-yl]-7-(2-methyl-4,5,6,7-tetrahydropyrazolo[1,5-a]pyrimidin-3-yl)-1,5-naphthyridine]	25.1 to 158 nM
0.0398 to 0.316 nM	Cc1cccc(-c2n[nH]cc2-c2ccc3nccc(N(C)CCCN4CCOCC4)c3n2)n1 [Compound 848, N-methyl-6-[3-(6-methyl-2-pyridyl)-1H-pyrazol-4-yl]-N-(3-morpholinopropyl)-1,5-naphthyridin-4-amine]	200 to 1260 nM
< 0.0316 nM	CCC(=O)Nc1cnc2ccc(-c3c[nH]nc3-c3cccc(C)n3)nc2c1 [Compound 234, N-[6-[3-(6-methyl-2-pyridyl)-1H-pyrazol-4-yl]-1,5-naphthyridin-3-yl]propanamide]	< 20 nM
< 0.0316 nM	Cc1cccc(-c2n[nH]cc2-c2ccc3ncc(N(C)C4CCN(C(C)C)C4)cc3n2)n1 (racemic) [Compound 503, N-methyl-6-[3-(6-methyl-2-pyridyl)-1H-pyrazol-4-yl]-N-[rac-(3R)-1-isopropylpyrrolidin-3-yl]-1,5-naphthyridin-3-amine]	25.1 to 158 nM
0.0398 to 0.316 nM	Cc1cccc(-c2[nH]cnc2-c2ccc3ncc(Nc4ccc(N5CCN(C(C)C)CC5)cn4)cc3c2)n1 [Compound 365, N-[5-(4-isopropylpiperazin-1-yl)-2-pyridyl]-6-[5-(6-methyl-2-pyridyl)-1H-imidazol-4-yl]quinolin-3-amine]	25.1 to 158 nM
0.0398 to 0.316 nM	Cc1cccc(-c2[nH]cnc2-c2ccc3ncc(-c4ccc(C(=O)OCCN5CCNCC5)nc4)cc3c2)n1 [Compound 1054, 2-piperazin-1-ylethyl 5-[6-[5-(6-methyl-2-pyridyl)-1H-imidazol-4-yl]-3-quinolyl]pyridine-2-carboxylate]	200 to 1260 nM
< 0.0316 nM	CNCCn1cc(-c2cnc3ccc(-c4c[nH]nc4-c4ccc(F)c(C)n4)nc3c2)cn1 [Compound 477, 2-[4-[6-[3-(5-fluoro-6-methyl-2-pyridyl)-1H-pyrazol-4-yl]-1,5-naphthyridin-3-yl]pyrazol-1-yl]-N-methyl-ethanamine]	< 20 nM
0.0398 to 0.316 nM	Cc1cccc(-c2[nH]ncc2-c2ccc3ncc(C(=O)OCC4CNC4)cc3c2)n1 [Compound 790, azetidin-3-ylmethyl 6-(5-(6-methylpyridin-2-yl)-1H-pyrazol-4-yl)quinoline-3-carboxylate]	25.1 to 158 nM
0.0398 to 0.316 nM	Cc1cccc(-c2n[nH]cc2-c2ccc3ncc(NCCN4CCN(C)CC4)cc3n2)n1 [Compound 619, N-[2-(4-methylpiperazin-1-yl)ethyl]-6-[3-(6-methyl-2-pyridyl)-1H-pyrazol-4-yl]-1,5-naphthyridin-3-amine]	25.1 to 158 nM
0.0398 to 0.316 nM	Cc1cccc(-c2n[nH]cc2-c2ccc3ncc(Nc4ccc(N5CCNCC5)cc4)cc3c2)n1 [Compound 488, 6-[3-(6-methyl-2-pyridyl)-1H-pyrazol-4-yl]-N-(4-piperazin-1-ylphenyl)quinolin-3-amine]	25.1 to 158 nM
0.0398 to 0.316 nM	Cc1cccc(-c2n[nH]cc2-c2ccc3ncc(-c4ccccn4)cc3n2)n1 [Compound 518, 2-[3-(6-methyl-2-pyridyl)-1H-pyrazol-4-yl]-7-(2-pyridyl)-1,5-naphthyridine]	< 20 nM
0.0398 to 0.316 nM	Cc1cccc(-c2[nH]cnc2-c2ccc3ncc(-c4cncc(C(=O)O[C@@H]5CCNC5)c4)cc3c2)n1 [Compound 725, [(3R)-pyrrolidin-3-yl] 5-[6-[5-(6-methyl-2-pyridyl)-1H-imidazol-4-yl]-3-quinolyl]pyridine-3-carboxylate]	25.1 to 158 nM
< 0.0316 nM	Cc1nc(-c2n[nH]cc2-c2ccc3ncc(-c4cnn(CC5CNC5)c4)cc3n2)ccc1F [Compound 474, 7-[1-(azetidin-3-ylmethyl)pyrazol-4-yl]-2-[3-(5-fluoro-6-methyl-2-pyridyl)-1H-pyrazol-4-yl]-1,5-naphthyridine]	25.1 to 158 nM
< 0.0316 nM	Cc1nc(-c2n[nH]cc2-c2ccc3ncc(-c4cnn(C5CCCNC5)c4)cc3c2)ccc1F (centres unmarked) [Compound 458, 6-[3-(5-fluoro-6-methyl-2-pyridyl)-1H-pyrazol-4-yl]-3-[1-(3-piperidyl)pyrazol-4-yl]quinoline]	< 20 nM
0.0398 to 0.316 nM	Cc1cccc(-c2n[nH]cc2-c2ccc3ncc(Nc4ccc(N5CCN(C)CC5)cn4)cc3c2)n1 [Compound 666, N-[5-(4-methylpiperazin-1-yl)-2-pyridyl]-6-[3-(6-methyl-2-pyridyl)-1H-pyrazol-4-yl]quinolin-3-amine]	25.1 to 158 nM
0.0398 to 0.316 nM	Cc1cccc(-c2[nH]cnc2-c2ccc3ncc(N4CCNC(CC(=O)OCC(C)C)C4)cc3c2)n1 (centres unmarked) [Compound 690, isobutyl 2-[4-[6-[5-(6-methyl-2-pyridyl)-1H-imidazol-4-yl]-3-quinolyl]piperazin-2-yl]acetate]	25.1 to 158 nM
0.0398 to 0.316 nM	Cc1cccc(-c2n[nH]cc2-c2ccc3nccc(N(C)CCN4CCOCC4)c3n2)n1 [Compound 831, N-methyl-6-[3-(6-methyl-2-pyridyl)-1H-pyrazol-4-yl]-N-(2-morpholinoethyl)-1,5-naphthyridin-4-amine]	200 to 1260 nM
0.0398 to 0.316 nM	COC(=O)N1CCc2nnc(-c3cnc4ccc(-c5c[nH]nc5-c5cccc(C)n5)nc4c3)cc2C1 [Compound 613, methyl 3-[6-[3-(6-methyl-2-pyridyl)-1H-pyrazol-4-yl]-1,5-naphthyridin-3-yl]-7,8-dihydro-5H-pyrido[4,3-c]pyridazine-6-carboxylate]	25.1 to 158 nM
3.98 to 31.6 nM	Cc1cccc(-c2[nH]cnc2-c2ccc3ncc(C(=O)O[C@H]4CCCC[C@@H]4N)cc3c2)n1 [Compound 879, (1S,2S)-2-aminocyclohexyl 6-(5-(6-methylpyridin-2-yl)-1H-imidazol-4-yl)quinoline-3-carboxylate]	25.1 to 158 nM
3.98 to 31.6 nM	Cc1cccc(-c2n[nH]cc2-c2ccc3ncc(N4CCN(C(C)C)C(C)(C)C4)cc3n2)n1 [Compound 20, 7-(4-isopropyl-3,3-dimethyl-piperazin-1-yl)-2-[3-(6-methyl-2-pyridyl)-1H-pyrazol-4-yl]-1,5-naphthyridine]	200 to 1260 nM
0.0398 to 0.316 nM	Cc1nc(-c2nc3ccccn3c2-c2ccc3ncc(N4CCNCC4)cc3n2)ccc1F [Compound 2, 2-[2-(5-fluoro-6-methyl-2-pyridyl)imidazo[1,2-a]pyridin-3-yl]-7-piperazin-1-yl-1,5-naphthyridine]	25.1 to 158 nM
0.398 to 3.16 nM	Cc1cccc(-c2[nH]cnc2-c2ccc3ncc(C(=O)OC[C@H]4CCCN4)cc3c2)n1 [Compound 760, [(2R)-pyrrolidin-2-yl]methyl 6-[5-(6-methyl-2-pyridyl)-1H-imidazol-4-yl]quinoline-3-carboxylate]	25.1 to 158 nM
0.0398 to 0.316 nM	Cc1cccc(-c2[nH]cnc2-c2ccc3ncc(N4C[C@@H](C)N[C@@H](C)C4)cc3c2)n1 [Compound 148, 3-[(3R,5S)-3,5-dimethylpiperazin-1-yl]-6-[5-(6-methyl-2-pyridyl)-1H-imidazol-4-yl]quinoline]	25.1 to 158 nM
0.0398 to 0.316 nM	Cc1cccc(-c2[nH]cnc2-c2ccc3ncc(NCCN4CC(N)C4)cc3c2)n1 [Compound 476, N-[2-(3-aminoazetidin-1-yl)ethyl]-6-[5-(6-methyl-2-pyridyl)-1H-imidazol-4-yl]quinolin-3-amine]	25.1 to 158 nM
0.0398 to 0.316 nM	Cc1cccc(-c2nnn(Cc3ccccc3)c2-c2ccc3ncc(NCCN4CCN(C(C)C)CC4)cc3c2)n1 [Compound 584, 6-[3-benzyl-5-(6-methyl-2-pyridyl)triazol-4-yl]-N-[2-(4-isopropylpiperazin-1-yl)ethyl]quinolin-3-amine]	200 to 1260 nM
0.398 to 3.16 nM	Cc1cccc(-c2[nH]cnc2-c2ccc3nccc(C(=O)O[C@H]4C[C@H](N)C4)c3c2)n1 [Compound 1107, (3-aminocyclobutyl) 6-[5-(6-methyl-2-pyridyl)-1H-imidazol-4-yl]quinoline-4-carboxylate]	25.1 to 158 nM
0.0398 to 0.316 nM	Cc1cccc(-c2n[nH]cc2-c2ccc3nccc(CN(C)CCCN4CCOCC4)c3n2)n1 [Compound 853, N-methyl-N-[[6-[3-(6-methyl-2-pyridyl)-1H-pyrazol-4-yl]-1,5-naphthyridin-4-yl]methyl]-3-morpholino-propan-1-amine]	25.1 to 158 nM
